Experimental data published in ChEMBL document CHEMBL3044945, “Synthesis of 1,3,5-trisubstituted pyrazoline nucleus containing compounds and screening for antimicrobial activity” (2012).

Key:
Type in all cases: functional
Aspergillus niger = test: Antifungal activity against Aspergillus niger MTCC 2546 at 10 ug/ml after 48 hr by cup-plate method; conditions: MTCC 2546, 48 h, read-out: DIZ
Penicillium chrysogenum = test: Antifungal activity against Penicillium chrysogenum MTCC 161 at 10 ug/ml after 48 hr by cup-plate method; conditions: MTCC 161, 48 h, read-out: DIZ
Pseudomonas aeruginosa = test: Antibacterial activity against Pseudomonas aeruginosa MTCC 424 at 10 ug/ml after 48 hr by cup-plate method; conditions: MTCC 424, 48 h, read-out: DIZ
Escherichia coli = test: Antibacterial activity against Escherichia coli MTCC 1573 at 10 ug/ml after 48 hr by cup-plate method; conditions: MTCC 1573, 48 h, read-out: DIZ
Pseudomonas fluorescens = test: Antibacterial activity against Pseudomonas fluorescens MTCC 2421 at 10 ug/ml after 48 hr by cup-plate method; conditions: MTCC 2421, 48 h, read-out: DIZ
Micrococcus luteus = test: Antibacterial activity against Micrococcus luteus MTCC 1538 at 10 ug/ml after 48 hr by cup-plate method; conditions: MTCC 1538, 48 h, read-out: DIZ
Bacillus pumilus = test: Antibacterial activity against Bacillus pumilus MTCC 1456 at 10 ug/ml after 48 hr by cup-plate method; conditions: MTCC 1456, 48 h, read-out: DIZ
Staphylococcus aureus = test: Antibacterial activity against Staphylococcus aureus MTCC 1430 at 10 ug/ml after 48 hr by cup-plate method; conditions: MTCC 1430, 48 h, read-out: DIZ
Bacillus subtilis = test: Antibacterial activity against Bacillus subtilis MTCC 441 at 10 ug/ml after 48 hr by cup-plate method; conditions: MTCC 441, 48 h, read-out: DIZ

For `OC(Cn1cncn1)(Cn1cncn1)c1ccc(F)cc1F` [FLUCONAZOLE], the zone of inhibition at 10 µg/mL (Aspergillus niger) was 24 mm and the zone of inhibition at 10 µg/mL (Penicillium chrysogenum) was 25 mm.

`CCn1cc(C(=O)O)c(=O)c2cc(F)c(N3CCNCC3)cc21` [NORFLOXACIN] was tested, and the zone of inhibition at 10 µg/mL (Pseudomonas aeruginosa) was 24 mm, the zone of inhibition at 10 µg/mL (Escherichia coli) was 27 mm and the zone of inhibition at 10 µg/mL (Pseudomonas fluorescens) was 27 mm. For the same molecule, the zone of inhibition at 10 µg/mL (Micrococcus luteus) was 32 mm, the zone of inhibition at 10 µg/mL (Bacillus pumilus) was 27 mm and the zone of inhibition at 10 µg/mL (Staphylococcus aureus) was 28 mm. For the same molecule, the zone of inhibition at 10 µg/mL (Bacillus subtilis) was 25 mm.
